Data as given in patent US20180333371A1, “CURCUMIN AND RESVERATROL FOR CHRONIC INFLAMMATION” (DSM IP Assets B.V., priority 2015, published 2018).

What was measured:
Format in all cases: cell-based, Sprague Dawley rat
[1] = tested on: TNF-α release by primary microglia; assay: LPS-stimulated TNF-α release by primary microglia (multiplex ELISA); settings: 0-250 μM, FIG. 2B
Source text: (§1) Microglial Harvesting and Culture. All experiments involving animals were approved by the Animal Care and Use Committee established at Bolder Biopath, Inc. (Boulder, Colo.). Primary microglial cultures were derived from neocortical tissue of E22 Sprague Dawley rat pups taken from timed-pregnant dams (Charles River) by Caesarean section. Briefly, the pup brain cortices were isolated in Hibernate EB (Brain Bits; Springfield, Ill.). The samples were then transferred to Hibernate E (without Ca; Brain Bits; Springfield, Ill.) and washed twice with fresh Hibernate E (−Ca). The tissue was next digested in Hibernate E (−Ca) containing 0.5% trypsin (Sigma) for 15 min at 37° C.). […]
(§2) The tissue was triturated into single cells, and the suspension was filtered through a 70-μm cell strainer. Cell numbers and viability were consistently greater than 95% as determined using trypan blue (0.4%; Fisher Scientific) and a Countess automated cell counter (Life Technologies, Grand Island, N.Y.). […]
(§3) Cell Stimulation and Cytokine Assays. […] The concentration of prostaglandin E2 (PGE2) in the supernatant was measured by ELISA (Cayman Chemical). The concentrations of tumor necrosis factor-α (TNF-α), interleukin-1β (IL-1β) and interleukin-6 (IL-6) in the supernatant were determined by multiplex ELISA (Quansys Biosciences; Logan, Utah). […]

[2] = tested on: PGE2 release from primary microglia; assay: LPS-stimulated PGE2 release by primary microglia (ELISA); settings: for effect on PGE2 release: FIG. 2A
Source text: Microglial Harvesting and Culture. All experiments involving animals were approved by the Animal Care and Use Committee established at Bolder Biopath, Inc. (Boulder, Colo.). Primary microglial cultures were derived from neocortical tissue of E22 Sprague Dawley rat pups taken from timed-pregnant dams (Charles River) by Caesarean section. Briefly, the pup brain cortices were isolated in Hibernate EB (Brain Bits; Springfield, Ill.). The samples were then transferred to Hibernate E (without Ca; Brain Bits; Springfield, Ill.) and washed twice with fresh Hibernate E (−Ca). The tissue was next digested in Hibernate E (−Ca) containing 0.5% trypsin (Sigma) for 15 min at 37° C.). The overlying solution was removed, and the trypsin reaction was quenched by washing the settled tissue with Hibernated E (—Ca) containing 20% heat-inactivated fetal bovine serum (FBS; Hyclone).
The tissue was triturated into single cells, and the suspension was filtered through a 70-μm cell strainer. Cell numbers and viability were consistently greater than 95% as determined using trypan blue (0.4%; Fisher Scientific) and a Countess automated cell counter (Life Technologies, Grand Island, N.Y.). Cells were seeded into T-75 flasks (VWR) at 8×10^6 cells/flask in HiGlutaXL Dulbecco's Modified Eagle Medium (DMEM, 4.5 g/L glucose, plus glutamine; HyClone) containing 100 μg/mL penicillin, 100 μg/mL streptomycin, 0.5 ng/mL amphotericin (CellnTec) and 1 mM sodium pyruvate. The media was changed on day 3 in vitro, and the cells were fed every 4-5 days while in the flasks. At day 14 in vitro, mouse granulocyte macrophage colony stimulating factor (mGM-CSF; R&D Systems; Minneapolis, Minn.) was added at a final concentration of 5 ng/mL to stimulate microglial differentiation.
as §3

[3] = tested on: IL-1β release by primary microglia; assay: LPS-stimulated IL-1β release by primary microglia (multiplex ELISA); settings: 0-250 μM, FIG. 2C
Source text: as §1, §2, §3

[4] = tested on: PGE2 release from primary microglia; assay: Synergism analysis (median-effect principle, combination index, ComboSyn) of PGE2 release inhibition

Oc1ccc(C=Cc2cc(O)cc(O)c2)cc1 [Resveratrol, resveratrol]
significant effects on TNF-α release [1]: not detected
effect on PGE2 release ([2]; 75 μM): significantly inhibited
effect on PGE2 release ([2]; 250 μM): significantly inhibited
IC50 ([2]; Rattus norvegicus, FIG. 3): 2.25 µM
significant effects on IL-1β release [3]: not detected
Dose reduction index (DRI) ([4]; in combination resveratrol 2.25 μM + curcumin C3 7 nM, FIG. 4): 42.76
decrease in concentration that would still have a synergistic effect in combination ([4]; relative to 2.25 μM resveratrol / 7 nM curcumin C3): 43%
